Results on 19 molecules are retold here after PubChem BioAssay AID248 (DTP/NCI, 2004).

The test system of this assay is L1210 leukemia ip in BDF1 mice, survival T/C. As to the kind of experiment: NCI In Vivo Anticancer Drug Screen. Data for tumor model L1210 Leukemia (intraperitoneal) in B6D2F1 (BDF1) mice. The following applies: higher = longer survival. The essentials: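 Antitumor effect is assessed in tumor-bearing animals. Survival in the compound arm is compared with a vehicle-dosed control arm and expressed as their quotient.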

[1] abbreviates: endpoint: mean survival time, dose: 100.0 mg/kg/injection, schedule: Q01DX009 (ip), vehicle: Klucel (hydroxypropylcellulose) (HPC).
The mark [2] stands for this setting: endpoint: mean survival time, dose: 200.0 mg/kg/injection, schedule: Q01DX009 (ip), vehicle: Klucel (hydroxypropylcellulose) (HPC).
The mark [3] stands for this setting: endpoint: mean survival time, dose: 400.0 mg/kg/injection, schedule: Q01DX009 (ip), vehicle: Klucel (hydroxypropylcellulose) (HPC).
The mark [4] stands for this setting: endpoint: mean survival time, dose: 100.0 mg/kg/injection, schedule: Q04DX003 (ip), vehicle: saline.
Where [5] appears, read: endpoint: mean survival time, dose: 200.0 mg/kg/injection, schedule: Q04DX003 (ip), vehicle: saline.
The mark [6] stands for this setting: endpoint: mean survival time, dose: 400.0 mg/kg/injection, schedule: Q04DX003 (ip), vehicle: saline.
Where [7] appears, read: endpoint: mean survival time, dose: 25.0 mg/kg/injection, schedule: Q04DX003 (ip), vehicle: saline with Tween-80.
The mark [8] stands for this setting: endpoint: mean survival time, dose: 100.0 mg/kg/injection, schedule: Q01DX001 (ip), vehicle: carboxymethylcellulose (CMC).
The mark [9] stands for this setting: endpoint: mean survival time, dose: 400.0 mg/kg/injection, schedule: Q01DX001 (ip), vehicle: carboxymethylcellulose (CMC).
Where [10] appears, read: endpoint: mean survival time, dose: 100.0 mg/kg/injection, schedule: Q01DX009 (ip), vehicle: saline.
The mark [11] stands for this setting: endpoint: mean survival time, dose: 200.0 mg/kg/injection, schedule: Q01DX009 (ip), vehicle: saline.
[12] abbreviates: endpoint: mean survival time, dose: 100.0 mg/kg/injection, schedule: Q04DX003 (ip), vehicle: Klucel (hydroxypropylcellulose) (HPC).
The mark [13] stands for this setting: endpoint: mean survival time, dose: 200.0 mg/kg/injection, schedule: Q04DX003 (ip), vehicle: Klucel (hydroxypropylcellulose) (HPC).
The mark [14] stands for this setting: endpoint: mean survival time, dose: 400.0 mg/kg/injection, schedule: Q04DX003 (ip), vehicle: Klucel (hydroxypropylcellulose) (HPC).

Each structure is given as a SMILES string. Several values for one entry are separate records, joined by “and”; a condition that tells them apart may be missing. Equal values may be shown once. Inconclusive results and toxic doses are left out.

With `NNC(=O)c1ccc(NC(=S)Nc2ccccc2)cc1`, the T/C by setting is: under setting [1], 93 % of control; under setting [2], 93 % of control; under setting [3], 104 % of control.
For `O=C(O)CCCCCn1nnc2c(=O)[nH]cnc21`, the T/C by setting is: under setting [4], 106 % of control; under setting [5], 106 % of control; under setting [6], 101 % of control.
With `CN(C)CC(C(=O)c1ccc(Br)cc1)C(Br)c1ccccc1` (stereo not drawn), the T/C runs as follows: (endpoint: mean survival time, dose: 0.78 mg/kg/injection, schedule: Q01DX009 (ip), vehicle: saline) 94 % of control; (endpoint: mean survival time, dose: 1.56 mg/kg/injection, schedule: Q01DX009 (ip), vehicle: saline) 92 % of control; (endpoint: mean survival time, dose: 3.12 mg/kg/injection, schedule: Q01DX009 (ip), vehicle: saline) 97 % of control; (endpoint: mean survival time, dose: 12.5 mg/kg/injection, schedule: Q04DX003 (ip), vehicle: saline with Tween-80) 95 % of control; under setting [7], 91 % of control.
As for `CN(C)N=Nc1ccc(C(N)=O)cc1`, the T/C is, setting by setting: (endpoint: mean survival time, dose: 30.0 mg/kg/injection, schedule: Q01DX Z (ip), vehicle: other) 108 % of control; (endpoint: mean survival time, dose: 40.0 mg/kg/injection, schedule: Q01DX Z (ip), vehicle: other) 111 % of control; (endpoint: mean survival time, dose: 60.0 mg/kg/injection, schedule: Q01DX Z (ip), vehicle: other) 121 % of control; (endpoint: median survival time, dose: 65.0 mg/kg/injection, schedule: Q01DX001 (ip), vehicle: steriod suspending solution) 100 % of control; (endpoint: median survival time, dose: 65.0 mg/kg/injection, schedule: Q01DX009 (ip), vehicle: steriod suspending solution) 105 % of control; (endpoint: median survival time, dose: 108.0 mg/kg/injection, schedule: Q01DX001 (ip), vehicle: steriod suspending solution) 100 % of control. The T/C by setting is: (endpoint: median survival time, dose: 180.0 mg/kg/injection, schedule: Q04DX003 (ip), vehicle: steriod suspending solution) 105 % of control; (endpoint: median survival time, dose: 300.0 mg/kg/injection, schedule: Q01DX001 (ip), vehicle: steriod suspending solution) 100 % of control.
With `CN1C(c2ccccc2)(c2ccccc2)c2ccccc2S1(=O)=O`, the T/C under setting [8] was 95 % of control; the T/C (endpoint: mean survival time, dose: 200.0 mg/kg/injection, schedule: Q01DX001 (ip), vehicle: carboxymethylcellulose (CMC)) is 95 % of control; the T/C under setting [9] was 93 % of control.
Consider `CCCCCCCCCCCCCCCCCC(=O)N/N=C/C(=C\c1ccccc1)CCCCCC`, for which the T/C under setting [1] is 90 % of control, the T/C under setting [2] was 98 % of control and the T/C under setting [3] was 93 % of control.
Take `Cn1c(=S)sc2cc(Cl)ccc21`: the T/C was 104 % of control (endpoint: mean survival time, dose: 100.0 mg/kg/injection, schedule: Q04DX003 (ip), vehicle: saline with Tween-80); 101 % of control (endpoint: mean survival time, dose: 200.0 mg/kg/injection, schedule: Q04DX003 (ip), vehicle: saline with Tween-80); 98 % of control (endpoint: mean survival time, dose: 400.0 mg/kg/injection, schedule: Q04DX003 (ip), vehicle: saline with Tween-80).
On to `COc1cccc(Oc2c(O)c3ccc(OC)cc3oc2=O)c1`, for which the T/C runs as follows: (endpoint: mean survival time, dose: 100.0 mg/kg/injection, schedule: Q01DX001 (ip), vehicle: saline) 100 % of control; (endpoint: mean survival time, dose: 200.0 mg/kg/injection, schedule: Q01DX001 (ip), vehicle: saline) 97 % of control; (endpoint: mean survival time, dose: 400.0 mg/kg/injection, schedule: Q01DX001 (ip), vehicle: saline) 97 % of control.
As for `C[N+](C)(C)CCC[N+](C)(C)C`, the T/C is, setting by setting: under setting [10], 108 % of control; under setting [4], 107 % of control; under setting [11], 106 % of control; under setting [5], 92 % of control; (endpoint: mean survival time, dose: 400.0 mg/kg/injection, schedule: Q01DX009 (ip), vehicle: saline) 106 % of control; under setting [6], 100 % of control.
On to `CCCCCc1c(C)nc([N+](=O)[O-])nc1N`, for which the T/C is, setting by setting: (endpoint: mean survival time, dose: 3.13 mg/kg/injection, schedule: Q01DX001 (ip), vehicle: saline with Tween-80) 97 % of control; (endpoint: mean survival time, dose: 6.25 mg/kg/injection, schedule: Q01DX001 (ip), vehicle: saline with Tween-80) 101 % of control; (endpoint: mean survival time, dose: 12.5 mg/kg/injection, schedule: Q01DX001 (ip), vehicle: saline with Tween-80) 96 % of control.
Turning to `CCOC(=O)C(C)Oc1ccc([N+](=O)[O-])cc1[N+](=O)[O-]` (stereo not drawn), the T/C runs as follows: under setting [12], 95 % of control; under setting [13], 90 % of control; under setting [14], 98 % of control.
Consider `Nc1nc(NCCCc2ccccc2)cc(=O)[nH]1`, for which the T/C is 98 % of control under setting [7] and 92 % of control (endpoint: mean survival time, dose: 50.0 mg/kg/injection, schedule: Q04DX003 (ip), vehicle: saline with Tween-80).
For `CSc1cc(C(=O)Nc2ccc(C3=NCCN3)cc2)cc(C(=O)Nc2ccc(C3=NCCN3)cc2)c1`, the T/C is, setting by setting: (endpoint: mean survival time, dose: 2.75 mg/kg/injection, schedule: Q01DX Z (ip), vehicle: carboxymethylcellulose (CMC)) 110 % of control; (endpoint: mean survival time, dose: 5.5 mg/kg/injection, schedule: Q01DX Z (ip), vehicle: carboxymethylcellulose (CMC)) 102 % of control; (endpoint: mean survival time, dose: 11.0 mg/kg/injection, schedule: Q01DX Z (ip), vehicle: carboxymethylcellulose (CMC)) 96 % of control; (endpoint: mean survival time, dose: 22.0 mg/kg/injection, schedule: Q01DX Z (ip), vehicle: carboxymethylcellulose (CMC)) 119 % of control; (endpoint: mean survival time, dose: 31.0 mg/kg/injection, schedule: Q01DX Z (ip), vehicle: carboxymethylcellulose (CMC)) 225 % of control; (endpoint: mean survival time, dose: 45.0 mg/kg/injection, schedule: Q01DX Z (ip), vehicle: carboxymethylcellulose (CMC)) 174 % of control. Besides, the T/C is, setting by setting: (endpoint: mean survival time, dose: 62.0 mg/kg/injection, schedule: Q01DX Z (ip), vehicle: carboxymethylcellulose (CMC)) 242 % of control; (endpoint: mean survival time, dose: 90.0 mg/kg/injection, schedule: Q01DX Z (ip), vehicle: carboxymethylcellulose (CMC)) 168 % of control; (endpoint: mean survival time, dose: 125.0 mg/kg/injection, schedule: Q01DX Z (ip), vehicle: carboxymethylcellulose (CMC)) 165 % of control; (endpoint: mean survival time, dose: 180.0 mg/kg/injection, schedule: Q01DX Z (ip), vehicle: carboxymethylcellulose (CMC)) 256 % of control; (endpoint: mean survival time, dose: 250.0 mg/kg/injection, schedule: Q01DX Z (ip), vehicle: carboxymethylcellulose (CMC)) 157 % of control; (endpoint: mean survival time, dose: 360.0 mg/kg/injection, schedule: Q01DX Z (ip), vehicle: carboxymethylcellulose (CMC)) 100 % of control.
In the case of `O=C1c2ccccc2C(C2c3ccccc3C(=O)c3ccccc32)c2ccccc21`, the T/C runs as follows: (endpoint: mean survival time, dose: 50.0 mg/kg/injection, schedule: Q01DX001 (ip), vehicle: carboxymethylcellulose (CMC)) 89 % of control; under setting [8], 89 % of control; under setting [9], 86 % of control.
For `N#CCCCCCCn1cnc2c(=S)nc[nH]c21`, the T/C under setting [12] is 104 % of control, the T/C under setting [13] was 107 % of control and the T/C under setting [14] was 107 % of control.
As for `COc1cccc(NC(=S)NNC(=S)NNc2ccccc2)c1`, the T/C is 108 % of control under setting [1], 100 % of control under setting [2] and 100 % of control under setting [3].
Take `COC(=O)C1=CC2C3C=C(C(=O)OC)C(C3)C2C1` (stereo not drawn): the T/C (endpoint: mean survival time, dose: 75.0 mg/kg/injection, schedule: Q01DX001 (ip), vehicle: Klucel (hydroxypropylcellulose) (HPC)) is 100 % of control; the T/C (endpoint: mean survival time, dose: 150.0 mg/kg/injection, schedule: Q01DX001 (ip), vehicle: Klucel (hydroxypropylcellulose) (HPC)) is 103 % of control; the T/C (endpoint: mean survival time, dose: 300.0 mg/kg/injection, schedule: Q01DX001 (ip), vehicle: Klucel (hydroxypropylcellulose) (HPC)) was 98 % of control.
Consider `NC(=S)Nc1ccc(C23CCC(CC2)CC3)cc1`, for which the T/C was 105 % of control (endpoint: mean survival time, dose: 50.0 mg/kg/injection, schedule: Q01DX009 (ip), vehicle: saline); 105 % of control under setting [10]; 102 % of control under setting [11].
Take `COc1ccc(C(=O)NC(=S)Nc2cccc([N+](=O)[O-])c2)cc1`: the T/C was 95 % of control and 88 % of control (endpoint: mean survival time, dose: 100.0 mg/kg/injection, schedule: Q01DX009 (ip), vehicle: saline with Tween-80); 88 % of control (endpoint: mean survival time, dose: 100.0 mg/kg/injection, schedule: Q04DX002 (ip), vehicle: saline); 88 % of control and 89 % of control (endpoint: mean survival time, dose: 200.0 mg/kg/injection, schedule: Q01DX009 (ip), vehicle: saline with Tween-80); 91 % of control (endpoint: mean survival time, dose: 200.0 mg/kg/injection, schedule: Q04DX002 (ip), vehicle: saline); 103 % of control (endpoint: mean survival time, dose: 400.0 mg/kg/injection, schedule: Q01DX009 (ip), vehicle: saline with Tween-80); 98 % of control (endpoint: mean survival time, dose: 400.0 mg/kg/injection, schedule: Q04DX002 (ip), vehicle: saline).
